# Measured values: article PMC8004712, “MRAP2 Interaction with Melanocortin-4 Receptor in SnakeHead (Channa argus)” (Biomolecules, 2021)
# Columns and labels:
# [1] = tested on: brain gnih, sgnrh and cgnrh; ovarian genes; conditions: black rockfish, ref not given, cited from earlier work
# Excerpt: In addition to energy homeostasis, MC4R also regulates reproduction and sexual function. Compared with mammals, the evidence of MC4R in regulating teleost reproduction is relatively scarce. In swordtail fish, nonfunctional Y-linked mc4r copies in larger males act as dominant-negative mutants and delay puberty onset. In spotted scat, MC4R stimulates gnrh expression in the hypothalamus, thereby modulating pituitary FSH and LH synthesis.
# [2] = tested on: caMC4R; assay: cAMP assay, caMC4R; format: cell-based, Channa argus (Northern snakehead); conditions: HEK293T cells
# [3] = target: caMC4R; assay: Ligand binding assay, caMC4R (displacement of ^125I-NDP-MSH); set-up: species or system Channa argus (Northern snakehead); conditions: HEK293T cells, 48 h after transfection, competition with ^125I-NDP-MSH, 1-h incubation, DMEM/BSA, gamma counter, mean ± SEM of at least three independent experiments
# [4] = tested on: goldfish; conditions: intracerebroventricular, ref [25]; cited from earlier work
# Excerpt: MC4R has been investigated in several non-mammalian vertebrates including ectotherm fish, such as goldfish, rainbow trout, spotted scat, grass carp, ricefield eel, orange-spotted grouper, and topmouth culter. Similar to mammalian MC4Rs, teleost MC4R is also involved in regulating food intake and maintaining energy balance. […] Meanwhile, intracerebroventricular administration of M ...
# [5] = tested on: MC4R; conditions: ref [36],[59],[65]; cited from earlier work
# Excerpt: (decreased cell surface expression), or zebrafish and topmouth culter (increased cell surface expression). Therefore, MRAP2 has a differential effect on MC4R membrane expression in different species. […] In topmouth culter, two isoforms of MRAP2 are also sho ...
compound,measurement,setting,value
CSCC[C@H](NC(=O)[C@H](CCCNC(=N)N)NC(=O)[C@H](Cc1ccc(O)cc1)NC(=O)[C@@H]1CCCN1C(=O)CNC(=O)[C@H](CCC(=O)O)NC(=O)[C@H](CC(=O)O)NC(=O)[C@H](CCCCN)NC(=O)[C@H](CCCCN)NC(=O)[C@H](CCC(=O)O)NC(=O)[C@H](C)N)C(=O)N[C@@H](CCC(=O)O)C(=O)N[C@@H](Cc1c[nH]cn1)C(=O)N[C@@H](Cc1ccccc1)C(=O)N[C@@H](CCCNC(=N)N)C(=O)N[C@@H](Cc1c[nH]c2ccccc12)C(=O)NCC(=O)N[C@@H](CO)C(=O)N1CCC[C@H]1C(=O)N1CCC[C@H]1C(=O)N[C@@H](CCCCN)C(=O)N[C@@H](CC(=O)O)C(=O)O [β-MSH],"expression of brain gnih, sgnrh and cgnrh",[1]; in vitro,increase brain gnih and decrease sgnrh and cgnrh expression in vitro
same,expression of ovarian genes,[1],affect expression of some ovarian genes
same,maximal response at caMC4R in comparison with hMC4R,"[2]; caMC4R vs hMC4R, cAMP",higher maximal responses than hMC4R
same,Rmax,"[2]; caMC4R, % of hMC4R, cAMP by RIA, 1 h at 37 °C, maximal response, mean ± SEM of at least three independent experiments",163.9 ± 89.36%
same,EC50,"[2]; caMC4R, cAMP by RIA, 0.5 mM isobutylmethylxanthine, 1 h at 37 °C, 10^−12 to 10^−6 M NDP-MSH and ACTH (1–24), 10^−11 to 10^−5 M α-MSH and β-MSH, mean ± SEM of at least three independent experiments",2.49 ± 0.81 nM
same,IC50,[3],329 ± 120 nM
melanotan II,food intake,[4],inhibits food intake
ACTH,ligand sensitivity of MC4R to ACTH in the presence of MRAP2,[5],increasing ligand sensitivity to ACTH
HS024,food intake,[4],stimulates food intake
